Assay results taken from patent US12459951B2, “Compounds that interact with RAS superfamily proteins for treatment of cancers, inflammatory diseases, rasopathies, and fibrotic disease” (SHY Therapeutics, LLC, priority 2022, dated 2025).

Key:
Erk1/2 phosphorylation = experiment: Erk1/2 Phosphorylation Assay (western blot), Panc-1; format: cell-based, human; settings: at 10 μM, * = activation
Procedure, shortened: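 KRas G12D Panc-1 cells were treated 6 h at 37° C with compound at 10 μM or serial dilutions for IC50 (0.3% DMSO). In method 1, cells were serum-starved overnight (0.5% FBS) and then given 1.5 ng/ml EGF for 15 min. In method 2, cells stayed in 10% FBS without stimulation. Lysate phospho-Erk1/2 (Thr202/Tyr204) was read by western blot.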

IL6 = experiment: IL-6 Quantification Assay (ELISA), LPS-stimulated RAW 264.7; format: cell-based; parameters: inhibition: dose or concentration left out as unconfirmed; settings: Mus musculus, RAW264.7; read-out: IL-6: % inh.
TNF-alpha = TNF-alpha Quantification Assay (ELISA), LPS-stimulated RAW 264.7; format: cell-based; settings: Mus musculus, RAW264.7; at 10 μM; read-out: TNFα: % inh.
KRas G12D mutant = experiment: Ras GTP Binding Domain Inhibition Assay (Ras Superfamily Assay); settings: 20 μM compound; for KRas G12D mutant + SOS: % inh.: with SOS; for KRas G12D mutant: % inh.: without SOS
Procedure, shortened: (§1)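 Binding of 100 nM fluorescent GTP (Cy3 or Cy5, 45 min, room temperature) was read after washes from plate-captured His-tagged protein. Beforehand, compounds at 20 μM or in dilution series for IC50 sat 3 h on the protein in Tris buffer pH 7.4 or 7.0 with 1% DMSO, Sos GEF optionally added for the last hour.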

KRas wild type = experiment: as above; settings: 20 μM compound; for KRas wild type + SOS: % inh.: with SOS; for KRas wild type: % inh.: without SOS
Procedure, shortened: as §1

Rac-1 = target: T1, Rac-1 (Homo sapiens, UniProt P63000); experiment: as above; settings: read-out: Rac-1: % inh.
T1 construct: made in house
Procedure, shortened: as §1

Row | SMILES | % inh of Erk1/2 phosphorylation in Panc-1 (Erk1/2 phosphorylation) | inhibition (IL6) [%] | inhibition at 10 µM (TNF-alpha) [%] | KRas G12D mutant + SOS: % inh. (KRas G12D mutant) | KRas G12D mutant: % inh. (KRas G12D mutant) | KRas wild type + SOS: % inh. (KRas wild type) | KRas wild type: % inh. (KRas wild type) | inhibition at 20 µM (Rac-1) [%]
1 | COCCO[C@H]1C[C@H](Nc2nc(-c3nccn3C)nn3cc(-c4ccn(C(C)C)n4)c(C)c23)C1 [Compound 92, 6-(1-Isopropyl-1H-pyrazol-3-yl)-N-((1r,3r)-3-(2-methoxyethoxy)cyclobutyl)-5-methyl-2-(1-methyl-1H-imidazol-2-yl)pyrrolo[2,1-f][1,2,4]triazin-4-amine] | A* (1-25% activation) | 50 to 74 | 1 to 24 | A (A = 1-25% inhibition) | A (A = 1-25% inhibition) | 0 (0 = 0% inhibition) | 0 (0 = 0% inhibition) | 1 to 25
2 | COCc1csc(Nc2nc(-c3nccn3C)nn3cc(-c4ccn(C(C)C)n4)c(C)c23)n1 [Compound 79, N-(6-(1-Isopropyl-1H-pyrazol-3-yl)-5-methyl-2-(1-methyl-1H-imidazol-2-yl)pyrrolo[2,1-f][1,2,4]triazin-4-yl)-4-(methoxymethyl)thiazol-2-amine] | D* (85-100% activation) | 1 to 24 | 25 to 49 | C (C = 50-75% inhibition) | D (D = 76-100% inhibition) | B (B = 26-49% inhibition) | C (C = 50-75% inhibition) | 76 to 100
3 | Cc1c(-c2ccn(C(C)C)n2)cn2nc(-c3nccn3C)nc(Nc3ccn(C4CC4)n3)c12 [Compound 84, N-(1-Cyclopropyl-1H-pyrazol-3-yl)-6-(1-isopropyl-1H-pyrazol-3-yl)-5-methyl-2-(1-methyl-1H-imidazol-2-yl)pyrrolo[2,1-f][1,2,4]triazin-4-amine] | D* (85-100% activation) | 25 to 49 | 0 |  |  |  |  | 76 to 100
4 | COc1ncccc1Nc1nc(-c2nccn2C)nn2cc(-c3ccn(C(C)C)n3)c(C)c12 [Compound 85, 6-(1-Isopropyl-1H-pyrazol-3-yl)-N-(2-methoxypyridin-3-yl)-5-methyl-2-(1-methyl-1H-imidazol-2-yl)pyrrolo[2,1-f][1,2,4]triazin-4-amine] | C (50-84% inhibition) | 75 to 100 | 50 to 74 | A (A = 1-25% inhibition) | 0 (0 = 0% inhibition) | 0 (0 = 0% inhibition) | 0 (0 = 0% inhibition) | 0
5 | COC[C@@H]1CC[C@@H]1CNc1nc(-c2nccn2C)nn2cc(-c3ccn(C(C)C)n3)c(-c3ccccc3)c12 (racemic) [Compound 20, rac 6-(1-Isopropyl-1H-pyrazol-3-yl)-N-(((1S,2R)-2-(methoxymethyl)cyclobutyl)methyl)-2-(1-methyl-1H-imidazol-2-yl)-5-phenylpyrrolo[2,1-f][1,2,4]triazin-4-amine] | D (85-100% inhibition) | 75 to 100 | 1 to 24 | 0 (0 = 0% inhibition) | A (A = 1-25% inhibition) | A (A = 1-25% inhibition) | A (A = 1-25% inhibition) | 0
6 | COC[C@@H]1CC[C@@H]1CNc1nc(-c2nccn2C)nn2cc(-c3ccn(C(C)C)n3)c(C)c12 (racemic) [Compound 3, rac 6-(1-Isopropyl-1H-pyrazol-3-yl)-N-(((1S,2R)-2-(methoxymethyl)cyclobutyl)methyl)-5-methyl-2-(1-methyl-1H-imidazol-2-yl)pyrrolo[2,1-f][1,2,4]triazin-4-amine] | D (85-100% inhibition) | 50 to 74 | 25 to 49 | 0 (0 = 0% inhibition) | 0 (0 = 0% inhibition) | 0 (0 = 0% inhibition) | 0 (0 = 0% inhibition) | 1 to 25
7 | COc1cccc(Nc2nc(-c3nccn3C)nn3cc(-c4ccn(C(C)C)n4)c(C)c23)n1 [Compound 7, 6-(1-Isopropyl-1H-pyrazol-3-yl)-N-(6-methoxypyridin-2-yl)-5-methyl-2-(1-methyl-1H-imidazol-2-yl)pyrrolo[2,1-f][1,2,4]triazin-4-amine] | 0 (0% inhibition) | 1 to 24 | 0 | 0 (0 = 0% inhibition) | A (A = 1-25% inhibition) | 0 (0 = 0% inhibition) | A (A = 1-25% inhibition) | 0
8 | COc1ncc(Nc2nc(-c3nccn3C)nn3cc(-c4ccn(C(C)C)n4)c(C)c23)cn1 [Compound 80, 6-(1-Isopropyl-1H-pyrazol-3-yl)-N-(2-methoxypyrimidin-5-yl)-5-methyl-2-(1-methyl-1H-imidazol-2-yl)pyrrolo[2,1-f][1,2,4]triazin-4-amine] | D* (85-100% activation) | 0 | 0 | 0 (0 = 0% inhibition) | A (A = 1-25% inhibition) | A (A = 1-25% inhibition) | A (A = 1-25% inhibition) | 1 to 25
9 | COc1nccc(Nc2nc(-c3nccn3C)nn3cc(-c4ccn(C(C)C)n4)c(C)c23)n1 [Compound 86, 6-(1-Isopropyl-1H-pyrazol-3-yl)-N-(2-methoxypyrimidin-4-yl)-5-methyl-2-(1-methyl-1H-imidazol-2-yl)pyrrolo[2,1-f][1,2,4]triazin-4-amine] | D* (85-100% activation) | 75 to 100 | 1 to 24 | C (C = 50-75% inhibition) | A (A = 1-25% inhibition) | 0 (0 = 0% inhibition) | B (B = 26-49% inhibition) | 50 to 75
10 | COCCNc1nc(-c2nccn2C)nn2cc(-c3ccn(C(C)C)n3)c(C)c12 [Compound 5, 6-(1-Isopropyl-1H-pyrazol-3-yl)-N-(2-methoxyethyl)-5-methyl-2-(1-methyl-1H-imidazol-2-yl)pyrrolo[2,1-f][1,2,4]triazin-4-amine] | 0 (0% inhibition) | 0 | 0 |  |  |  |  | 26 to 49
